Assay results reported in article PMC8148004, “Distinction between 2′- and 3′-Phosphate Isomers of a Fluorescent NADPH Analogue Led to Strong Inhibition of Cancer Cells Migration” (Antioxidants, 2021).

Assays:
[1] = target: T1, NOX2 C-terminal (gp91phox) (Homo sapiens, UniProt P04839); test: fluorescence enhancement titration of the ligand with recombinant protein; assay type: binding
T1 construct: gene CYBB; C-terminal (cytosolic part), residues 300–580, His-tagged, E. coli
T1 sequence (P04839 300-570): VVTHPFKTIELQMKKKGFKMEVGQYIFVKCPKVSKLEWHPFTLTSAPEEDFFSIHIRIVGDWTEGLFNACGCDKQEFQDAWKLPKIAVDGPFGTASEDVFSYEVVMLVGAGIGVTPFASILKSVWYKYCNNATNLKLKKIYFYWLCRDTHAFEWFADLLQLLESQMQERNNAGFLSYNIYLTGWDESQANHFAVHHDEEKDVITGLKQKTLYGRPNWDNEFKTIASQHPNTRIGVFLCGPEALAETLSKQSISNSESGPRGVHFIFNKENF

[2] = target: T1, NOX2 C-terminal (gp91phox); test: fluorescence enhancement titration of the ligand with recombinant protein; also decreased NADPH consumption; assay type: binding
[3] = target: T2, eNOS (Bos taurus, UniProt P29473); test: oxyhemoglobin assay for NO formation; assay type: biochemical
T2 construct: gene NOS3; full length recombinant bovine eNOS, E. coli BL21 (DE3); with calmodulin
T2 sequence (P29473 2-1205): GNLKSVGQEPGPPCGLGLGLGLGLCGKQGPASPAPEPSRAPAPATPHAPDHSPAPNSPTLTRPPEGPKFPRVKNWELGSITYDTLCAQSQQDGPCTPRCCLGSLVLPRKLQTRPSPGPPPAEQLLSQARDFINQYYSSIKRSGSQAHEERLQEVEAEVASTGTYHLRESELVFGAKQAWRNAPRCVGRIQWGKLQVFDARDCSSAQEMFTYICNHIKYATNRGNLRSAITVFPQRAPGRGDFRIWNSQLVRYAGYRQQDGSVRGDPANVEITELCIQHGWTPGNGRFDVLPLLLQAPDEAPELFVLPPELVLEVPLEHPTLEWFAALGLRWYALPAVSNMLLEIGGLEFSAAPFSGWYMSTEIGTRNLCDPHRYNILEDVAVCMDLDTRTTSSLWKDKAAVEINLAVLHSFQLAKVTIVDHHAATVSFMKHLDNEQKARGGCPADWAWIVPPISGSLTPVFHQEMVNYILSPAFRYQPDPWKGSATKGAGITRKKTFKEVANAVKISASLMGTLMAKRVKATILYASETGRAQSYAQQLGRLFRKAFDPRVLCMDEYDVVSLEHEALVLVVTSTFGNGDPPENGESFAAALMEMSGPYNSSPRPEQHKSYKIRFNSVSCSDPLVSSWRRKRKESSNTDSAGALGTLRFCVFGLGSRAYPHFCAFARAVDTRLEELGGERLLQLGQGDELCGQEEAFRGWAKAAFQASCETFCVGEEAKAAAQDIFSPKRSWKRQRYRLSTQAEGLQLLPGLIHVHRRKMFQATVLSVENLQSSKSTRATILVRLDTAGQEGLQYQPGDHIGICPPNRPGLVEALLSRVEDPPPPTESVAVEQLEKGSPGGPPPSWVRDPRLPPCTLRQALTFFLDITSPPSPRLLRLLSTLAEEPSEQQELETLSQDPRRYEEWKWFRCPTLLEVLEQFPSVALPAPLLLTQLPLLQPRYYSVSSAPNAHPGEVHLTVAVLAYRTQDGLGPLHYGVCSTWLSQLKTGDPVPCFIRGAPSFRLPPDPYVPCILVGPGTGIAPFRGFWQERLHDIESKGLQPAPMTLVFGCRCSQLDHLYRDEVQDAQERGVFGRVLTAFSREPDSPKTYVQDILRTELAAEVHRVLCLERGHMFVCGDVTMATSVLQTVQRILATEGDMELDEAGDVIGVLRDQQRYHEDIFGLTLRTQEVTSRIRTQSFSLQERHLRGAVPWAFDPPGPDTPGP

| SMILES | Kd [1] | Kd [2] | IC50 [3] |
| --- | --- | --- | --- |
| CCN(CCNC(=O)[C@H]1O[C@@H](n2cnc3c(N)ncnc32)[C@H](O)[C@@H]1OP(=O)(O)O)c1ccc(/C=C/c2ccc([N+](=O)[O-])cc2)cc1 [NS1-3] | 1.14 ± 0.09 µM |  |  |
| CCN(CCNC(=O)[C@H]1O[C@@H](n2cnc3c(N)ncnc32)[C@H](OP(=O)(O)O)[C@@H]1O)c1ccc(/C=C/c2ccc([N+](=O)[O-])cc2)cc1 [NS1-2] |  | 0.67 ± 0.11 µM | ~30 µM |
